In PMC8780580, “The Neuroactive Steroid Pregnanolone Glutamate: Anticonvulsant Effect, Metabolites and Its Effect on Neurosteroid Levels in Developing Rat Brains” (Pharmaceuticals, 2021):
Counter-ions that a name gives are not always drawn.

Columns and labels:
α4β3γ2 GABAARs = system: α4β3γ2 GABAARs; set-up: method as in PMID 15294445; conditions: at 100 μM; cited from earlier work
α4β3δ GABAARs = system: α4β3δ GABAARs; set-up: method as in PMID 15294445; conditions: cited from earlier work
[1] = Steroidomic (GC-MS/MS) analysis of hippocampal tissue after PA-G administration; conditions: for fold increase in the concentration in the rat hippocampus above the basal levels / percentage of total significantly increased (5β) steroids in the rat hippocampus / concentration at 20 min: 20 min after PA-G i.p., 1 mg/kg in CDX; for increase in concentration compared with basal levels: after PA-G i.p.; for increase in concentration compared with basal levels / concentration at 20 min: 1 mg/kg; for concentration at 20 min: male, Wistar, rat, in vivo, ip, Steroid concentration in hippocampal tissue, PA-G-Treated (P);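 on all read-outs here: hippocampal steroids quantified by GC-MS/MS, covering free and conjugated forms after hydrolysis, compared against intact rats and rats injected with CDX vehicle alone, five animals per group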
Protocol: In a separate experiment, samples of the hippocampus were obtained from male albino Wistar rats in 6 experimental groups consisting of P12 and P25 animals that were either intact (I), controls (C, i.p. application of a solution of CDX), or in the experimental group (i.p. application of PA-G in a solution of CDX at a dose of 1 mg/kg). Each group consisted of 5 animals. The animals were sacrificed using ether anaesthesia (Penta, Czech Republic) 30 min after administration of the drug. The hippocampi were quickly removed, weighed, and frozen at −80 °C in sterile plastic microvials until analysis.
An amount of 17–100 mg of the hippocampal tissue was minced and then administered into screw-cap tubes. Next, 2 mL of methanol with a mixture of internal standards was added, and the samples were incubated for 1 week in a refrigerator at 4 °C with agitation for 2 min once a day. Afterwards, the extract was transferred into new screw-cap tubes and dried in a vacuum centrifuge at 45 °C. After that, 1 mL of water of chromatographic purity was added, and the samples were further treated as described in our recently published paper [76].
Briefly, the unconjugated steroids were extracted from a testing sample with diethyl-ether, the extract was dried, and the lipids were separated by partitioning between a mixture of methanol with water (4:1, v/v) and pentane. The pentane phase was discarded, and the polar phase was dried and used for further analysis of the unconjugated steroids. Steroid conjugates remaining in the polar residue after diethyl ether were hydrolyzed to their parent hydroxy steroids (unconjugated molecules) and analyzed.

[2] = within 0.5 min of uptake; cited from earlier work
[3] = system: pentylenetetrazol-induced seizures; test: Pentylenetetrazol (PTZ)-induced seizures in 12- and 25-day-old rats; assay type: in vivo, male Wistar albino rats
Protocol: Solutions of PA-G and PA-S were administered intraperitoneally at a concentration of 1 mg/mL, and doses of 1, 5, 10, and 20 mg/kg were used. The solutions of zuranolone were administered intraperitoneally at a concentration of 1 mg/mL, and doses of 0.5, 1, 5, and 10 mg/kg were used. Controls were injected with CDX solution in a volume corresponding to the highest dose (i.e., 20 mL/kg). The same control group was used for PA-S and PA-G. Pentylenetetrazol (PTZ, Sigma Aldrich, Gillingham, Dorset, UK) was dissolved in water in a concentration of 50 mg/mL and was administered subcutaneously at a dose of 100 mg/kg 20 min after the administration of PA-G or PA-S. Each age and dose group comprised 8 animals. The rats were placed individually into plexiglass boxes and were then observed for 30 min after PTZ injection. The incidence, severity, and latencies of seizures were assessed. Younger animals were placed on a pad heated to 34 °C, i.e., to the temperature in the nest for the whole duration of the experiment because of immature thermoregulation. Generalized tonic-clonic or clonic seizures with a loss of righting reflexes were present after a dose of 100 mg/kg of PTZ in all control animals in both age groups. […] The severity of seizures was quantified using a five-point scale as follows: 0—no changes; 0.5—abnormal behaviour (e.g., automatisms, increased orienting reaction); 1—isolated myoclonic jerks; 2—atypical or prolonged minimal seizures; 3—clonic seizures (mS) involving head and forelimb muscles with preserved righting reflexes (older-term minimal pentetrazol seizures); 4—generalized seizures without the tonic phase (GCS); 5—complete generalized tonic-clonic seizures (GTCS).

NMDARs = conditions: NMDA-induced currents, transfected HEK293 cells; cited from earlier work
GABAARs [4] = system: GABAARs; set-up: method as in PMID 29886074; conditions: isolated pyramidal neurons of the rat hippocampus, cited from earlier work
GABAARs [5] = conditions: allosteric displacement of [35S]-TBPS from the picrotoxin binding site on GABAARs; cited from earlier work
postpartum depression = system: postpartum depression; set-up: method as in PMID 34190962; conditions: women with postpartum depression, Phase 3 clinical trial; cited from earlier work
[6] = P12 rats, i.p. doses of 5 and 10 mg/kg

CC(=O)[C@@]1(O)CCC2C3CC[C@@H]4C[C@H](O)CC[C@]4(C)C3CC[C@@]21C (stereo partly drawn) [17-OH-PA, 17-hydroxy-pregnanolone]
greatest response (α4β3γ2 GABAARs): 20%
maximum efficacy (α4β3δ GABAARs): 57%
EC50 (α4β3δ GABAARs; read-out: EC50 (potentiation of responses)): 3.5 µM
proportion of the brain's 5β-steroids in the tissue ([1]; 20 min after PA-G administration): about three-quarters
fold increase in the concentration in the rat hippocampus above the basal levels ([1]; P12): 562 x
percentage of total significantly increased (5β) steroids in the rat hippocampus ([1]; P12): 73.7%
increase in concentration compared with basal levels ([1]; P12 animals): up to 560 fold
metabolite of PA-G identified in hippocampus ([1]; P12 vs. P25 animals, 20 min after PA-G administration): major metabolite
fold increase in the concentration in the rat hippocampus above the basal levels ([1]; P25): 35.8 x
percentage of total significantly increased (5β) steroids in the rat hippocampus ([1]; P25): 75.9%
increase in concentration compared with basal levels ([1]; P25 animals): 36 fold
concentration at 20 min ([1]; 12-day-old rats): 518 ng/g
concentration at 20 min ([1]; 25-day-old rats): 40.8 ng/g

C[C@]12CC[C@H](OS(=O)(=O)O)CC1=CC[C@@H]1[C@@H]2CC[C@]2(C)C(=O)CC[C@@H]12 [Dehydroepiandrosterone sulfate (DHEA-S), 17-oxo-androst-5-en-3β-yl 3-sulfate]
desulfation [2]: > 50%
concentration at 20 min ([1]; 12-day-old rats): 4.86 ng/g
concentration at 20 min ([1]; 25-day-old rats): 1.52 ng/g

CC(=O)[C@H]1CCC2C3CC[C@@H]4C[C@H](OC(=O)[C@@H](N)CCC(=O)O)CC[C@]4(C)C3CC[C@@]21C (stereo partly drawn) [PA-G, 20-oxo-5β-pregnan-3α-yl L-glutamyl 1-ester]
latencies of GS ([3]; P12 rats, Kruskal-Wallis over dose groups): increase in the latencies of GS
incidence of generalized seizures (GS) ([3]; P12 rats, i.p. 20 mg/kg (highest dose tested)): prevented the development of GS in all animals
seizure severity ([3]; P12 rats, i.p. 1, 5, 10, 20 mg/kg, Kruskal-Wallis over dose groups): suppressed seizure severity
tonic phase (TP) of GTCS [3, 6]: completely abolished TP
seizure severity ([3]; P25 rats, Kruskal-Wallis over dose groups): affected seizure severity
latencies of GS ([3]; P25 rats, i.p. 10 mg/kg): prolonged
incidence of GTCS ([3]; P25 rats, i.p. 20 mg/kg): completely suppressed these seizures
seizure severity (score) ([3]; P25 rats, i.p. 20 mg/kg): decreased score
IC50 (NMDARs): 73 µM
maximum potentiation of IGABA peak amplitude (GABAARs [4]): up to 422%
EC50 (GABAARs [4]; read-out: EC50 (increase of IGABA peak)): 7 µM
fold increase in the concentration in the rat hippocampus above the basal levels ([1]; P12): 199 x
percentage of total significantly increased (5β) steroids in the rat hippocampus ([1]; P12): 6.04%
fold increase in the concentration in the rat hippocampus above the basal levels ([1]; P25): 9.76 x
percentage of total significantly increased (5β) steroids in the rat hippocampus ([1]; P25): 10.8%

C[C@@]1(O)CC[C@H]2[C@H](CC[C@@H]3[C@@H]2CC[C@]2(C)[C@@H](C(=O)Cn4cc(C#N)cn4)CC[C@@H]32)C1 [zuranolone]
development of GS [3, 6]: abolished
seizure severity [3, 6]: significant decrease in seizure severity
latencies of mS ([3]; P25 rats): increase in the latencies of mS
development of GS ([3]; P25 rats, all tested doses (0.5, 1, 5, 10 mg/kg i.p.)): completely suppressed development of GS
seizure severity ([3]; P25 rats, i.p. dose of only 1 mg/kg): significantly decreased seizure severity
development of mS ([3]; P25 rats, i.p. doses of 5 and 10 mg/kg): suppressed the development of mS
IC50 (GABAARs [5]): 0.007 µM
symptoms of depression (postpartum depression): improved the symptoms of depression
